Assay results published in patent US20060287533A1, “SOLVENT CONTAINING 1,2,5-THIADIAZOLE COMPOUND, AND METHOD FOR EXTRACTING AN ORGANIC COMPOUND USING THE SOLVENT” (Waseda University, priority 2004, published 2006).

Legend:
Format in all cases: physicochemical
[1] = Compatibility of 1,2,5-thiadiazole with other solvents; design: key: ◯: Circle: fully compatible to give a uniform mixture; Triangle: giving a white turbidity; X-mark: being divided into two phases; details: 1,2,5-thiadiazole mixed with the listed solvent at volume ratio 1/1 (2 ml), room temperature, visual inspection
Protocol: For 1,2,5-thiadiazole of the present invention, its compatibility with other solvents was studied. The test consisted of mixing 1,2,5-thiadiazole with another solvent at a volume ratio of 1/1 (2 ml), allowing the system to stand at room temperature, and visually inspecting the compatibility of the former with the latter.
Circle: fully compatible to give a uniform mixture
Triangle: giving a white turbidity
X-mark: being divided into two phases

[2] = Dissolving capability: amount of solvent needed to completely dissolve 20 mg of compound; details: 20 mg compound, room temperature; for Addition amount of solvent until compound completely dissolved (Example 3): solvent 1,2,5-thiadiazole, stirring; for Amount of solvent required for completely dissolving the compound (Comp. Ex. 1): solvent chloroform; for Amount of solvent required for completely dissolving the compound (Comp. Ex. 2): solvent diethylether
Protocol: The dissolving capability of 1,2,5-thiadiazole of the present invention was studied. A 20 mg of each of compounds 1 to 20 was transferred into a sample vial, to which 1,2,5-thiadiazole was added at room temperature with stirring. The addition was continued until the compound was completely dissolved, and the addition amount of the solvent was determined.
The same procedure as in Example 3 was repeated except that 1,2,5-thiadiazole was replaced with chloroform. The amount of the solvent required for completely dissolving the compound was determined.
The same procedure as in Example 3 was repeated except that 1,2,5-thiadiazole was replaced with diethylether. The amount of the solvent required for completely dissolving the compound was determined.

[3] = Extracting activity: partition of compound between water phase and organic phase (TLC); details: for Ratio of content of compound in water phase against organic phase (Example 4): 2 mg compound in 100 μl 1,2,5-thiadiazole + 100 μl distilled water; for Ratio of content of compound in water phase against organic phase (Comp. Ex. 3): 2 mg compound in 100 μl chloroform + 100 μl distilled water; for Ratio of content of compound in water phase against organic phase (Comp. Ex. 4): 2 mg compound in 100 μl diethylether + 100 μl distilled water
Protocol: The extracting activity of 1,2,5-thiadiazole of the present invention was studied. A 2 mg of each of compounds 1 to 20 was dissolved in 100 μl of 1,2,5-thiadiazole, to which 100 μl of distilled water was added, and the system was subjected to separation operation. The ratio of the content of the compound in water phase against the counterpart in organic phase was determined using TLC, and the results are shown in Table 3.
The same procedure as in Example 4 was repeated except that 1,2,5-thiadiazole was replaced with chloroform, to determine the comparative extracting activity of chloroform.
The same procedure as in Example 4 was repeated except that 1,2,5-thiadiazole was replaced with diethylether, to determine the comparative extracting activity of diethylether.

[4] = Separatory funnel phase separation of 1,2,5-thiadiazole and water; details: 10 ml 1,2,5-thiadiazole and 10 ml water, shaken vigorously, allowed to stand
Protocol: A 10 ml of 1,2,5-thiadiazole and 10 ml of water were put into a separatory funnel, and the system was shaken vigorously, to be allowed to stand.

| Compound | Compatibility [1] | Addition amount of solvent until compound completely dissolved (Example 3) [2] | Amount of solvent required for completely dissolving the compound (Comp. Ex. 1) [2] | Amount of solvent required for completely dissolving the compound (Comp. Ex. 2) [2] | Ratio of content of compound in water phase against organic phase (Example 4) [3] | Ratio of content of compound in water phase against organic phase (Comp. Ex. 3) [3] | Ratio of content of compound in water phase against organic phase (Comp. Ex. 4) [3] | Phase separation from water [4] |
| --- | --- | --- | --- | --- | --- | --- | --- | --- |
| Cc1ccccc1 [Toluene] | ◯ |  |  |  |  |  |  |  |
| Cc1oc2ccccc2c(=O)c1C [Compound 17] |  | 40 µL | 40 µL | 4000 µL |  |  |  |  |
| CC(C)=O [Acetone] | ◯ |  |  |  |  |  |  |  |
| CCO [Ethanol] | ◯ |  |  |  |  |  |  |  |
| CCOC(C)=O [Ethyl acetate] | ◯ |  |  |  |  |  |  |  |
| CO [Methanol] | ◯ |  |  |  |  |  |  |  |
| CO[C@H]1OC(COCc2ccccc2)[C@H](N=[N+]=[N-])CC1NS(=O)(=O)c1ccc(C)cc1 (stereo partly drawn) [Compound 2] |  | 140 µL | 240 µL | 1600 µL | 0/100 | 1/50 | 1/4 |  |
| COCOc1cc(OC)c(OC)c2c1C(=O)OC2 [Compound 10] |  | 200 µL | 400 µL | Hardly soluble | 0/100 | 1/100 | Hardly soluble |  |
| CC(=O)OCC1OCCC(OC(C)=O)[C@@H]1OC(C)=O (stereo partly drawn) [Compound 18] |  | 200 µL | 200 µL | 200 µL |  |  |  |  |
| O=C1Cc2ccccc2N1 [Compound 1] |  | 100 µL | 400 µL | 2000 µL | 1/100 | 1/10 | 1/5 |  |
| O=C(O)CNC(=O)OCc1ccccc1 [Compound 5] |  | 1000 µL | 2000 µL | 2000 µL | 0/100 | 1/5 | 0/100 |  |
| Xylene | ◯ |  |  |  |  |  |  |  |
| CN(C)C=O [Dimethylformamide] | ◯ |  |  |  |  |  |  |  |
| CCCCCC(=O)CC(=O)NC1CCOC1=O (stereo not drawn) [Compound 19] |  | 100 µL | 100 µL | 4800 µL |  |  |  |  |
| Cc1ccc(S(=O)(=O)O[C@@H]2C(C)O[C@@H](OCc3ccccc3)C3OC(=O)OC32)cc1 (stereo partly drawn) [Compound 9] |  | 20 µL | 200 µL | 6000 µL | 0/100 | 0/100 | 0/100 |  |
| CCCCCC [n-Hexane] | ◯ |  |  |  |  |  |  |  |
| O=C1C=CC2(C=C1CO)OCCO2 [Compound 14] |  | 100 µL | 100 µL | 2000 µL |  |  |  |  |
| O=C1C(OCc2ccccc2)=C[C@@H](CO)[C@@H]1CO [Compound 3] |  | 160 µL | 200 µL | Insoluble | 1/5 | 4/5 | Hardly soluble |  |
| CC(=O)Oc1ccc(OC(C)=O)c(OC(C)=O)c1 [Compound 7] |  | 100 µL | 200 µL | 2000 µL | 0/100 | 0/100 | 0/100 |  |
| CC/C=C(\C)CN1C(=O)OC[C@H]1C(C)C [Compound 12] |  | 200 µL | 200 µL | 200 µL |  |  |  |  |
| CC#N [Acetonitrile] | ◯ |  |  |  |  |  |  |  |
| c1ccccc1 [Benzene] | ◯ |  |  |  |  |  |  |  |
| Cc1ccc(S(=O)(=O)OCCC2(CCS(=O)(=O)c3ccccc3)OCCO2)cc1 [Compound 6] |  | 1000 µL | 2000 µL | Hardly soluble | 0/100 | 1/5 | Hardly soluble |  |
| O [Water] | X |  |  |  |  |  |  |  |
| COCCCCC(O)C(O)C(=O)OC (stereo not drawn) [Compound 16] |  | 100 µL | 100 µL | 200 µL |  |  |  |  |
| CO[C@H]1OC2COC(c3ccccc3)O[C@H]2C(O)C1NS(=O)(=O)c1ccc(C)cc1 (stereo partly drawn) [Compound 8] |  | 200 µL | 240 µL | 1600 µL | 1/15 | 1/15 | 1/15 |  |
| CC(C)(C)[Si](C)(C)OCC1=CC2(OCCO2)C(O)C(O)C1=O (stereo not drawn) [Compound 11] |  | 200 µL | 400 µL | Hardly soluble |  |  |  |  |
| CC1(C)OCc2cc(OCCO)ccc2O1 [Compound 15] |  | 100 µL | 100 µL | 2400 µL |  |  |  |  |
| 1,2,5-thiadiazole |  |  |  |  |  |  |  | clearly divided into two phases |
| COCOc1cc(OCOC)c2c(c1)C(S(=O)(=O)c1ccccc1)OC2=O (stereo not drawn) [Compound 4] |  | 1000 µL | Hardly soluble | Hardly soluble | 0/100 | Hardly soluble | Hardly soluble |  |
